# Measured values reported in patent US10478440B2, “Pharmaceutical compositions for inhibiting angiogenesis comprising plant-derived natural compound” (INDUSTRY-ACADEMIC COOPERATION FOUNDATION, YONSEI UNIVERSITY, priority 2011, dated 2019).
# How the values were obtained:
# HUVECs [1] = assay: Nicotine-induced tube formation of HUVECs; format: cell-based, human; conditions: nicotine 10 nM
# Protocol: Serum-starved HUVECs were stimulated by nicotine (10 nM) in the presence or absence of voacangine. […] The basal level capillary tube formation (a) and invasiveness (b) of HUVECs that remained in serum-free media were normalized to 100%. Matrigel (10 mg/mL) was used to coat a 48-well plate and allowed to polymerize for 1 h at 37° C. HUVECs (6×10^4 cells) were seeded on the surface of the Matrigel, and then test compounds were added for 4-16 h at 37° C. in the presence or absence of VEGF (30 ng/mL). Morphological changes in the cells and formation of tubular structures were observed under a microscope (IX71, Olympus) and photographed at 100× magnification (DP70, Olympus).
# HUVECs [2] = assay: Nicotine-induced endothelial cell invasion; format: cell-based, human; conditions: nicotine 10 nM
# Protocol: Serum-starved HUVECs were stimulated by nicotine (10 nM) in the presence or absence of voacangine. […] The basal level capillary tube formation (a) and invasiveness (b) of HUVECs that remained in serum-free media were normalized to 100%. To examine the invasiveness of HUVECs in vitro, we used a Transwell chamber system with 8.0-μm pore polycarbonate filter inserts. Briefly, the lower side of the filter was coated with gelatin (10 μL, 1 mg/mL) and the upper side was coated with Matrigel (10 μL, 3 mg/mL). […] The chamber was incubated at 37° C. for 18 h, and then the cells were fixed with 70% methanol and stained with hematoxylin and eosin. The invasiveness of cells was measured by counting the number of whole cells in the lower side of the filter using a microscope at 100× magnification, and cells were photographed at 100× magnification.
# HUVECs [3] = assay: MTT cell proliferation assay, HUVECs; format: cell-based, human
# Protocol: (§1) Human umbilical vascular endothelial cells (HUVECs) were grown for 7-11 passages in EGM-2 medium supplemented with 10% FBS. HepG2 (human liver carcinoma) cells were grown in RPMI 1640 containing 10% FBS and 1% antibiotics. All cell lines were maintained at 37° C. in a humidified 5% CO2 incubator. Cell proliferation was measured using a 3-(4,5-dimethylthiazol-2-yl)-2,5-diphenyltetrazolium bromide (MTT) colorimetric assay, and cell viability was assessed using Trypan blue staining.
# CHANG = assay: MTT cell proliferation assay, CHANG; format: cell-based; conditions: normal cells
# HeLa = assay: MTT cell proliferation assay, HeLa; format: cell-based; conditions: Homo sapiens, cancer cells
# HT1080 = assay: MTT cell proliferation assay, HT1080; format: cell-based; conditions: Homo sapiens, HT-1080; HT1080, cancer cells
# HepG2 = assay: MTT cell proliferation assay, HepG2; format: cell-based; conditions: Homo sapiens; HepG2, cancer cells
# Protocol: as §1
# HUVECs [4] = assay: Capillary tube formation assay (VEGF-induced); format: cell-based, human; conditions: VEGF 30 ng/mL, serum-starved HUVECs
# Protocol: Matrigel (10 mg/mL) was used to coat a 48-well plate and allowed to polymerize for 1 h at 37° C. HUVECs (6×10^4 cells) were seeded on the surface of the Matrigel, and then test compounds were added for 4-16 h at 37° C. in the presence or absence of VEGF (30 ng/mL). Morphological changes in the cells and formation of tubular structures were observed under a microscope (IX71, Olympus) and photographed at 100× magnification (DP70, Olympus).
# HUVECs [5] = assay: Chemoinvasion assay (VEGF-induced); format: cell-based, human; conditions: VEGF 30 ng/mL, serum-starved HUVECs
# Protocol: To examine the invasiveness of HUVECs in vitro, we used a Transwell chamber system with 8.0-μm pore polycarbonate filter inserts. Briefly, the lower side of the filter was coated with gelatin (10 μL, 1 mg/mL) and the upper side was coated with Matrigel (10 μL, 3 mg/mL). Test compounds were added to the lower chamber in the presence of VEGF (30 ng/mL), and HUVECs (7×10^5 cells) were placed in the upper chamber of the filter. The chamber was incubated at 37° C. for 18 h, and then the cells were fixed with 70% methanol and stained with hematoxylin and eosin. The invasiveness of cells was measured by counting the number of whole cells in the lower side of the filter using a microscope at 100× magnification, and cells were photographed at 100× magnification.
# [6] = tested on: chick embryo chorioallantoic membrane (CAM); assay: Chorioallantoic membrane (CAM) assay; format: in vivo, chicken
# Protocol: The CAM assay was performed as described previously. Fertilized chicken eggs were kept in a humidified incubator at 37° C. for 3 days. Approximately 2-3 mL of egg albumin was removed with a hypodermic needle, allowing the CAM and yolk sac to drop away from the shell membrane. […] After further incubation for 2 days, 2-3 mL of Intralipose (Greencross Co, Suwon, Korea) was injected beneath the CAM and the membrane was observed under a microscope. Retinoic acid (RA) was used as a positive control.
# HIF-1α = assay: Western blot of HIF-1α under hypoxic conditions; format: cell-based, human; conditions: HepG2 cells during hypoxia
# Protocol: The cell lysates were separated by 10% SDS-PAGE, followed by transfer to PVDF membranes (Millipore, Bedford, Mass.) using standard electroblotting procedures. Blots were then blocked and immunolabeled overnight at 4° C. with primary antibodies, including anti-HIF-1α and anti-tubulin antibodies. Immunolabeling was detected by an enhanced chemiluminescence (ECL) kit (GE Healthcare, Buckinghamshire, UK) according to the manufacturer's instructions. For hypoxic conditions, cells were incubated at 5% CO2 with 1% O2 balanced with N2 in an anaerobic chamber (Forma).
# VEGF = assay: Measurement of VEGF by ELISA; format: cell-based, human; conditions: HepG2 cells
# Protocol: The VEGF concentration in media from voacangine-treated cells was determined using a VEGF Immunoassay kit (R&D Systems, Minneapolis, Minn.) according to the manufacturer's instructions. The results were expressed as concentration of VEGF relative to the total amount of VEGF from each well.
# HUVECs [7] = assay: In vitro tumor cell-induced angiogenesis assay (combinated-chemoinvasion assay); format: cell-based, human; conditions: HepG2 in lower chamber, without VEGF
# Protocol: To examine the invasive activity of […], a Transwell chamber system with 8.0-μm pore polycarbonate filter inserts was used. Briefly, the lower side of the filter was coated with gelatin (10 μL, 1 mg/mL) and the upper side was coated with Matrigel (10 μL, 3 mg/mL). Next, tumor cell HepG2 was added to the lower chamber. Test compounds were added to the lower chamber without VEGF and HUVECs (7×10^5 cells) were placed in the upper chamber of the filter. The chamber was incubated at 37° C. for 18 h, and then the cells were fixed with 70% methanol and stained with hematoxylin and eosin. Invasiveness was measured by counting the number of whole cells on the lower side of the filter using a microscope at 100× magnification, and cells were photographed at 100× magnification.
# capsaicin contraction = conditions: literature [9]; cited from earlier work
# HUVECs [8] = assay: Trypan blue cell viability; conditions: doses up to 20 μM for 3 days
compound,measurement,setting,value
"CN1CCCC1c1cccnc1 (stereo not drawn) [nicotine, reference compound]",increase of angiogenesis (tube formation) activity,HUVECs [1]; serum-starved HUVECs,2.5 fold
same,increase of cell invasion activity,HUVECs [2]; serum-starved HUVECs,2.0 fold
"CC[C@H]1C[C@@H]2CN3CCc4c([nH]c5ccc(OC)cc45)[C@](C(=O)OC)(C2)C13 [voacangine, 12-methoxyibogamine-18-carboxylic acid methyl ester]",cell growth,"HUVECs [3]; 10 μM, 3 days, MTT",inhibited cell growth
same,IC50,"HUVECs [3]; Homo sapiens, HUVEC, HUVECs, normal cells",18 µM
same,growth inhibition on HUVECs versus other cell lines,HUVECs [3]; compared with other normal and cancer cell lines (Table 1),greater growth inhibition effect on HUVECs than on other normal and cancer cell lines
same,IC50,CHANG,26 µM
same,IC50,HeLa,23 µM
same,IC50,HT1080,33 µM
same,IC50,HepG2,42 µM
same,VEGF-induced tube formation,HUVECs [4],inhibited VEGF-induced tube formation in a dose-dependent manner
same,VEGF-induced invasiveness of HUVECs,HUVECs [5],inhibited the VEGF-induced enhanced invasiveness of HUVECs in a dose-dependent manner
same,capillary formation during CAM development,"[6]; 2 and 4 μg/egg, 2 days",dose-dependently inhibited capillary formation
same,signs of thrombosis or hemorrhage in CAM,[6]; 2 days treatment,no apparent signs of thrombosis or hemorrhage
same,expression level of HIF-1α,HIF-1α,dose-dependently reduced
same,synthesis of cyclin D1 and tubulin,HIF-1α; Western blot,without inhibiting the synthesis of other proteins
same,hypoxia-induced expression of VEGF,VEGF,inhibited the hypoxia-induced expression of VEGF
same,tumor cell-induced invasiveness of HUVECs by hypoxia,HUVECs [7],dose-dependently inhibited
same,nicotine-induced angiogenesis (tube formation),HUVECs [1],inhibit nicotine-induced angiogenesis
same,nicotine-induced invasion of HUVECs,HUVECs [2],inhibit nicotine-induced angiogenesis and invasion of HUVECs in a dose-dependent manner
same,capsaicin contraction,capsaicin contraction,inhibit capsaicin contraction in a dose-dependent manner
same,cytotoxicity on HUVECs (trypan blue exclusion),HUVECs [8],no cytotoxicity
